Measured values: patent US20210261642A1, “SOLUBILITY OF GLP-1 PEPTIDE” (Novo Nordisk A/S, priority 2017, published 2021)

Test: Assay (I): Determination of Solubility (96-well plate, pH 3.0-11.0, organic solvent 0-70% w/w, UV absorption at 280 nm)
Type: physicochemical
Details: Method 1
Procedure: Assay (I): Determination of Solubility
96-Well Plate Preparation
96-well plates containing target peptide in a solid form were prepared in one of two ways:
Method 1 (evaporation): Addition of 100 μl stock solution of said peptide at a concentration of 4-6 mg/ml to each well of a 96-well half area plate (150 μl well size). Subsequently the solvent was evaporated by applying a vacuum until the solvent was completely removed.
Method 2 (precipitation): Addition of a certain volume of a stock solution of said peptide containing to each well of a 96-well half area plate followed by the addition of a certain volume of concentrated phosphoric acid to obtain a pH of 4.6 followed by addition of a certain volume of ethanol resulting in a final ethanol concentration of 20% v/v. Subsequently the plate was stored at 4° C. for 1 h and then centrifuged at 4,000 rpm for 20 min. Finally the supernatant was removed. The concentration of the stock solution was chosen in a way that the final amount of peptide after supernatant removal was >0.4 mg per well.
In both cases the stock solution was prepared by adding de-ionized water to a certain amount of powder of said peptide followed by a stepwise addition of small amounts of a concentrated sodium hydroxide solution until said peptide was completely in solution.
To determine solubility of a target peptide at different pH and organic solvent concentrations, two different buffer systems were used in independent experiments to cover the whole range from pH 3.0 to pH 11.0. Buffer system 1 covers pH 3.0-7.5 and buffer system 2 covers pH 7.5-11.0. For each buffer system 96 different solvent compositions were premixed in the following way: • 1. A low pH buffer (adjusted to either pH 3.0 or pH 7.5) and a high pH buffer (adjusted to either pH 7.5 or pH 11.0) were mixed at 8 different ratios to obtain values between pH 3.0 and pH 7.5 or pH 7.5 and pH 11.0, respectively. The total volume after mixing was 300 μl. • 2. 12 different amounts of organic solvent were then added to these buffers to obtain organic solvent (e.g. ethanol) concentrations between 0 and 70% w/w. • 3. Water was then added to obtain a total weight of 1.0 g of solvent in each well.
After preparing the 96 different solvent systems, 100 μl of each system was transferred to the 96-well plate containing the solid form of the target peptide (prepared as described in the section “96-well plate preparation”). The plate was then stored at a given temperature (between 5° C. and 70° C.) for a given time on a rotating shaker set to 400 rpm. At regular time intervals the plate was centrifuged (4,000 rpm for 10 min) and a 10 μl sample was taken from each well. The samples were then analysed by UV absorption at 280 nm for peptide quantification. Peptide concentration results are given as UV absorption at 280 nm of the sample subtracted UV absorption at 280 nm of a well comprising 10 μl water.
The buffers used were as follows: • Buffer system 1 (for the pH range from pH 3.0-7.5)
• Buffer system 2 (for the pH ranae from pH 7.5-11.0)
Solubility of liraglutide was determined using Assay (I) described herein. Liraglutide was prepared using Method 1 (evaporation) or Method 2 (precipitation) as described in subsection “96-well plate preparation”.

## CCCCCCCCCCCCCCCC(=O)N[C@@H](CCC(=O)NCCCC[C@H](NC(=O)[C@H](C)NC(=O)[C@H](C)NC(=O)[C@H](CCC(N)=O)NC(=O)CNC(=O)[C@H](CCC(=O)O)NC(=O)[C@H](CC(C)C)NC(=O)[C@H](Cc1ccc(O)cc1)NC(=O)[C@H](CO)NC(=O)[C@H](CO)NC(=O)[C@@H](NC(=O)[C@H](CC(=O)O)NC(=O)[C@H](CO)NC(=O)[C@@H](NC(=O)[C@H](Cc1ccccc1)NC(=O)[C@@H](NC(=O)CNC(=O)[C@H](CCC(=O)O)NC(=O)[C@H](C)NC(=O)[C@@H](N)Cc1cnc[nH]1)[C@@H](C)O)[C@@H](C)O)C(C)C)C(=O)N[C@@H](CCC(=O)O)C(=O)N[C@@H](Cc1ccccc1)C(=O)N[C@H](C(=O)N[C@@H](C)C(=O)N[C@@H](Cc1c[nH]c2ccccc12)C(=O)N[C@@H](CC(C)C)C(=O)N[C@H](C(=O)N[C@@H](CCCNC(=N)N)C(=O)NCC(=O)N[C@@H](CCCNC(=N)N)C(=O)NCC(=O)O)C(C)C)[C@@H](C)CC)C(=O)O [liraglutide, Arg34,Lys26-(N-epsilon-(gamma-L-glutamyl(N-alfa-hexadecanoyl)))-GLP-1(7-37)]
MeCN 6.4% w/w, pH 3.6, 5° C.
  Peptide concentration after 180 min: 0.1 mg/mL
  Peptide concentration after 24 h: 0.2 mg/mL
MeCN 6.4% w/w, pH 3.6, RT
  Peptide concentration after 24 h: 0.1 mg/mL
MeCN 6.4% w/w, pH 4.3, 5° C.
  Peptide concentration after 5 min: 0.1 mg/mL
  Peptide concentration after 180 min: 0.1 mg/mL
  Peptide concentration after 24 h: 0.2 mg/mL
MeCN 6.4% w/w, pH 8.0, 5° C.
  Peptide concentration after 5 min: 0.8 mg/mL
  Peptide concentration after 180 min: 2.2 mg/mL
  Peptide concentration after 24 h: >4.0 mg/mL
MeCN 6.4% w/w, pH 8.5, 5° C.
  Peptide concentration after 5 min: 0.8 mg/mL
  Peptide concentration after 180 min: 2.6 mg/mL
  Peptide concentration after 24 h: >4.0 mg/mL
MeCN 6.4% w/w, pH 9.0, 5° C.
  Peptide concentration after 5 min: 1.0 mg/mL
  Peptide concentration after 180 min: 2.9 mg/mL
  Peptide concentration after 24 h: >4.0 mg/mL
MeCN 6.4% w/w, pH 9.5, 5° C.
  Peptide concentration after 5 min: 0.6 mg/mL
  Peptide concentration after 180 min: 2.5 mg/mL
  Peptide concentration after 24 h: >4.0 mg/mL
MeCN 6.4% w/w, pH 10.0, 5° C.
  Peptide concentration after 5 min: 1.0 mg/mL
  Peptide concentration after 180 min: 3.1 mg/mL
  Peptide concentration after 24 h: >4.0 mg/mL
MeCN 6.4% w/w, pH 10.5, 5° C.
  Peptide concentration after 5 min: 0.7 mg/mL
  Peptide concentration after 180 min: 2.6 mg/mL
  Peptide concentration after 24 h: >4.0 mg/mL
MeCN 6.4% w/w, pH 11.0, 5° C.
  Peptide concentration after 5 min: 0.7 mg/mL
  Peptide concentration after 180 min: 1.7 mg/mL
  Peptide concentration after 24 h: >4.0 mg/mL
MeCN 12.7% w/w, pH 8.0, 5° C.
  Peptide concentration after 5 min: 1.3 mg/mL
  Peptide concentration after 180 min: 2.2 mg/mL
  Peptide concentration after 24 h: >4.0 mg/mL
MeCN 12.7% w/w, pH 8.5, 5° C.
  Peptide concentration after 5 min: 0.8 mg/mL
  Peptide concentration after 180 min: 2.1 mg/mL
  Peptide concentration after 24 h: >4.0 mg/mL
MeCN 12.7% w/w, pH 9.0, 5° C.
  Peptide concentration after 5 min: 0.8 mg/mL
  Peptide concentration after 180 min: 1.8 mg/mL
  Peptide concentration after 24 h: >4.0 mg/mL
MeCN 12.7% w/w, pH 9.5, 5° C.
  Peptide concentration after 5 min: 0.9 mg/mL
  Peptide concentration after 180 min: 1.9 mg/mL
  Peptide concentration after 24 h: >4.0 mg/mL
MeCN 12.7% w/w, pH 10.0, 5° C.
  Peptide concentration after 5 min: 0.8 mg/mL
  Peptide concentration after 180 min: 2.3 mg/mL
  Peptide concentration after 24 h: >4.0 mg/mL
MeCN 12.7% w/w, pH 10.5, 5° C.
  Peptide concentration after 5 min: 1.1 mg/mL
  Peptide concentration after 180 min: 2.1 mg/mL
  Peptide concentration after 24 h: >4.0 mg/mL
MeCN 12.7% w/w, pH 11.0, 5° C.
  Peptide concentration after 5 min: 0.6 mg/mL
  Peptide concentration after 180 min: 1.5 mg/mL
  Peptide concentration after 24 h: >4.0 mg/mL
MeCN 19.1% w/w, pH 8.0, 5° C.
  Peptide concentration after 5 min: 1.0 mg/mL
  Peptide concentration after 180 min: 2.7 mg/mL
  Peptide concentration after 24 h: >4.0 mg/mL
